Source: ChEMBL document CHEMBL5729067, “Phenylacetamides as inhibitors of rock” (2022)

Target: Rho-associated protein kinase 2 (Homo sapiens, UniProt O75116)
Experiment: In Vitro Assay: The effectiveness of compounds of the present invention as ROCK inhibitors can be determined in a 30 μL assay containing 20 mM HEPES, pH 7.5, 20 mM MgCl2, 0.015% Brij-35, 4 mM DTT, 5 μM ATP and 1.5 μM peptide substrate (FITC-AHA-AKRRRLSSLRA-OH) (SEQ ID No. 1). Compounds were dissolved in DMSO so that the final concentration of DMSO was <2%, and the reaction was initiated with Rho kinase variants. After incubation, the reaction was terminated by the addition of EDTA and the phosphorylated and non-phosphorylated peptides separated using a LABCHIP® 3000 Reader (Caliper Life Sciences). […] Compounds were tested in dose-response format, and the inhibition of kinase activity was calculated at each concentration of compound. The inhibition data were fit using a curve-fitting program to determine the IC50; i.e., the concentration of compound required to inhibit 50% of kinase activity.

Rho-associated protein kinase 2, sequence (O75116 whole entry, looked up, change not shown): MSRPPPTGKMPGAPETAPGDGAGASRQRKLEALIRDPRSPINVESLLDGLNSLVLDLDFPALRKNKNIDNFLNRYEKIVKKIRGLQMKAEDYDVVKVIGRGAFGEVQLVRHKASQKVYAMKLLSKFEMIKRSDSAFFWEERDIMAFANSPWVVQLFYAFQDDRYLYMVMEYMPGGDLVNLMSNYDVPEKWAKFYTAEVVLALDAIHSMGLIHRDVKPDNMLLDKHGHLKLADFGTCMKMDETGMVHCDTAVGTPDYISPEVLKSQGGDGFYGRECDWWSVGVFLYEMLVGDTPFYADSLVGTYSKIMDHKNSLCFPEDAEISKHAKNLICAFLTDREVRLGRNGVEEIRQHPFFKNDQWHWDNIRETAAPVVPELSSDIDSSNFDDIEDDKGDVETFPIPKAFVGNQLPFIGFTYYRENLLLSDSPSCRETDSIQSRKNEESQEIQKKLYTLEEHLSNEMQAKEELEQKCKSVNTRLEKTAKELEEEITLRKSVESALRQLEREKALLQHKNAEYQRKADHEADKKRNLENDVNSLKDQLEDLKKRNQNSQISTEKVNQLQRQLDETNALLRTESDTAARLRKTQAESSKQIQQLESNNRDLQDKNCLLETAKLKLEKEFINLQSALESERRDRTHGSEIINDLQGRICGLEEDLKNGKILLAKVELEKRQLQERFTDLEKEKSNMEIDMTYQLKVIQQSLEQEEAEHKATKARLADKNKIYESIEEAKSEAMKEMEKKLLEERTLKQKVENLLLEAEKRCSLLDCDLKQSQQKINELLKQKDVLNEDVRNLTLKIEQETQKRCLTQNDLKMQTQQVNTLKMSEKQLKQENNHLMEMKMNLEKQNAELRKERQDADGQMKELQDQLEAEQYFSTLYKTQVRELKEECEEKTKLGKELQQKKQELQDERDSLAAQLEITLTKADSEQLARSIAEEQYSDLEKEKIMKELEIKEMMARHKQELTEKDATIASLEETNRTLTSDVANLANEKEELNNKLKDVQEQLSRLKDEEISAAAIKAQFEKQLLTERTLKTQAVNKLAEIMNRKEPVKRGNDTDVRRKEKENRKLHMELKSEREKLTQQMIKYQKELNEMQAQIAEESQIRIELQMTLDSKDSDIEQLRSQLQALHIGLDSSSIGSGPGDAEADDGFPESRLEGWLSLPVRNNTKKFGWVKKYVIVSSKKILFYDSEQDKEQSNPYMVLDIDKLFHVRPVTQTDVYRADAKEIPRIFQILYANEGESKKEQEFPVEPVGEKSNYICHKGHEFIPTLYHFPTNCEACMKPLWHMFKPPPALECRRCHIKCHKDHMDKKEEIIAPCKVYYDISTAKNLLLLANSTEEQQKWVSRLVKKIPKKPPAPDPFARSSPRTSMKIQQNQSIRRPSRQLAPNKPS

IC50: 87 nM
Structure (SMILES): Cc1sc(C(=O)Cc2ccc(Oc3ncccc3C(N)=O)cc2)nc1-c1ccccc1
